Where two headings read alike, the source gives them in different places.
Columns and labels:
Assay type in all cases: in vivo
[1] = test system: Beet Armyworm (Spodoptera exigua, LAPHEG); assay: Bioassay on Beet Armyworm (BAW), 128-well diet tray assay; conditions: 168 h, read-out: BAW % Control (or Mortality) rating
How it was run: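 Second instar larvae were exposed to diet treated at 50 μg/cm^2 for five to seven days at 25° C.; mortality was averaged over eight wells.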

[2] = test system: Yellow Fever Mosquito (Aedes aegypti, AEDSAE); assay: Bioassay on Yellow Fever Mosquito (YFM) larvae, 96-well plate; conditions: about 1 day-old larvae, room temperature, 3 days, scored on mortality
How it was run: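 Each well was scored for mortality after 3 days at room temperature under a non-evaporative lid. Test molecules came from DMSO masters (4000 ppm stock) diluted with water/acetone 90:10 and dispensed into six replicate plates, which were then infested with roughly 1-day-old larvae in liver-powder water.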

[3] = test system: Cabbage Looper (Trichoplusia ni, TRIPNI); assay: Bioassay on Cabbage Looper (CL), 128-well diet tray assay; conditions: 168 h, read-out: CL % Control (or Mortality) rating
How it was run: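 Second-instar T. ni larvae (one to five per well) were placed on artificial diet treated with 50 μg/cm^2 compound, applied in 90:10 acetone-water and dried. Trays were held five to seven days at 25 °C under 14:10 light-dark. Percent mortality per well was averaged over eight wells.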

[4] = 50 μg/cm^2 on artificial diet, second instar larvae, 25° C., five to seven days, average of eight wells

| Compound | mortality at 50 µg/cm2 [1, 4] | YFM % Control (or Mortality) rating [2] | mortality at 50 µg/cm2 [3, 4] | mortality at 50 µg/cm2 [1] | mortality at 50 µg/cm2 [3] |
| --- | --- | --- | --- | --- | --- |
| O=C(NCC(F)(F)F)c1cc(NC(=O)[C@H]2[C@H](c3ccc(Cl)c(C(F)(F)F)c3)C2(Cl)Cl)ccc1Cl (relative stereo) [F117, 2-Chloro-5-(trans-2,2-dichloro-3-(4-chloro-3-(trifluoromethyl)phenyl)cyclopropane-1-carboxamido)-N-(2,2,2-trifluoroethyl)benzamide] | 50 to 100% | A (80-100) | 50 to 100% |  |  |
| O=C(NCCSCc1ccco1)c1cc(NC(=O)[C@H]2[C@H](c3cc(Cl)cc(Cl)c3)C2(Cl)Cl)ccc1Cl (relative stereo) [PF9, trans-2-Chloro-5-(2,2-dichloro-3-(3,5-dichlorophenyl)cyclopropane-1-carboxamido)-N-(2-((furan-2-ylmethyl)thio)ethyl)benzamide] | 50 to 100% | A (80-100) | 50 to 100% |  |  |
| O=C(NCC(F)(F)F)c1cc(NC(=O)[C@H]2[C@H](c3ccc(Cl)c(F)c3)C2(Cl)Cl)ccc1Cl (relative stereo) [F120, 2-Chloro-5-(trans-2,2-dichloro-3-(4-chloro-3-fluorophenyl)cyclopropane-1-carboxamido)-N-(2,2,2-trifluoroethyl)benzamide] | 50 to 100% | A (80-100) | 50 to 100% |  |  |
| O=C(NCC(F)(F)F)c1cc(NC(=O)C2C(c3cc(F)c(F)c(F)c3)C2(Cl)Cl)ccc1Cl (stereo not drawn) [F126, 2-Chloro-5-trans-(2,2-dichloro-3-(3,4,5-trifluorophenyl)cyclopropane-1-carboxamido)-N-(2,2,2-trifluoroethyl)benzamide] | 50 to 100% | A (80-100) | 50 to 100% |  |  |
| O=C(NCCC1CC1)c1cc(NC(=O)C2C(c3cc(Cl)cc(Cl)c3)C2(Cl)Cl)ccc1Cl (stereo not drawn) [F24, trans-N-2-Chloro-N-(2-cyclopropylethyl)-5-(2,2-dichloro-3-(3,5-dichlorophenyl)cyclopropane-1-carboxamido)benzamide] | 50 to 100% | A (80-100) | 50 to 100% |  |  |
| O=C(NCC(F)(F)F)c1cc(NC(=O)[C@H]2[C@H](c3cccc(C(F)F)c3)C2(Cl)Cl)ccc1Cl (relative stereo) [F134, 2-Chloro-5-(trans-2,2-dichloro-3-(3-(difluoromethyl)phenyl)cyclopropane-1-carboxamido)-N-(2,2,2-trifluoroethyl)benzamide] | 50 to 100% | A (80-100) | 50 to 100% |  |  |
| C[C@H](CSCCC(F)(F)F)NC(=O)c1cc(NC(=O)C2C(c3cc(Cl)cc(Cl)c3)C2(Cl)Cl)ccc1Cl (stereo in doubt) [PF2, trans-2-Chloro-5-(2,2-dichloro-3-(3,5-dichlorophenyl)cyclopropane-1-carboxamido)-N—((R)-1-((3,3,3-trifluoropropyl)thio)propan-2-yl)benzamide] | 50 to 100% | A (80-100) | 50 to 100% |  |  |
| O=C(NCC1CC(F)(F)C1)c1cc(NC(=O)[C@H]2[C@H](c3cc(Cl)cc(Cl)c3)C2(Cl)Cl)ccc1Cl (relative stereo) [F70, trans-2-Chloro-5-(2,2-dichloro-3-(3,5-dichlorophenyl)cyclopropane-1-carboxamido)-N-((3,3-difluorocyclobutyl)methyl)benzamide] | 50 to 100% | D (No activity noticed in this bioassay) | 50 to 100% |  |  |
| COC(=O)C(CCSC)NC(=O)c1cc(NC(=O)[C@H]2[C@H](c3cc(Cl)cc(Cl)c3)C2(Cl)Cl)ccc1Cl (relative stereo) [PF10, trans-Methyl-2-(2-chloro-5-(2,2-dichloro-3-(3,5-dichlorophenyl)cyclopropane-1-carboxamido)benzamido)-4-(methylthio)butanoate] | 50 to 100% | B (More than 0-Less than 80) | 50 to 100% |  |  |
| O=C(NCC(F)(F)F)c1cc(NC(=O)[C@H]2[C@H](c3ccc(F)c(F)c3)C2(Cl)Cl)ccc1Cl (relative stereo) [F108, 2-chloro-5-(trans-2,2-dichloro-3-(3,4-difluorophenyl)cyclopropane-1-carboxamido)-N-(2,2,2-trifluoroethyl)benzamide] |  | A (80-100) |  | 50 to 100% | 50 to 100% |
| O=C(NCCC1CC1)c1cc(NC(=O)C2C(c3cc(Cl)c(Cl)c(Cl)c3)C2(Cl)Cl)ccc1Cl (stereo not drawn) [F26, trans-N-2-Chloro-N-(2-cyclopropylethyl)-5-(2,2-dichloro-3-(3,4,5-trichlorophenyl)cyclopropane-1-carboxamido)benzamide] | 50 to 100% | A (80-100) | 50 to 100% |  |  |
| O=C(NCC(F)(F)F)c1cc(NC(=O)[C@H]2[C@H](c3ccc(F)c(Br)c3)C2(Cl)Cl)ccc1Cl (relative stereo) [F118, 5-(trans-3-(3-Bromo-4-fluorophenyl)-2,2-dichlorocyclopropane-1-carboxamido)-2-chloro-N-(2,2,2-trifluoroethyl)benzamide] | 50 to 100% | A (80-100) | 50 to 100% |  |  |
| CCCNC(=O)c1cc(NC(=O)[C@H]2[C@H](c3cc(Cl)cc(Cl)c3)C2(Cl)Cl)c(Cl)cc1Cl (relative stereo) [F101, trans-2,4-Dichloro-5-(2,2-dichloro-3-(3,5-dichlorophenyl)cyclopropane-1-carboxamido)-N-propylbenzamide] | 0% | D (No activity noticed in this bioassay) | 0% |  |  |
| O=C(NCC(F)(F)F)c1cc(NC(=O)[C@H]2[C@H](c3ccc(Br)c(C(F)(F)F)c3)C2(Cl)Cl)ccc1Cl (relative stereo) [F115, 5-(trans-3-(4-Bromo-3-(trifluoromethyl)phenyl)-2,2-dichlorocyclopropane-1-carboxamido)-2-chloro-N-(2,2,2-trifluoroethyl)benzamide] | 50 to 100% | A (80-100) | 50 to 100% |  |  |
| COc1c(Cl)cc([C@H]2[C@H](C(=O)Nc3ccc(Cl)c(C(=O)NCCF)c3)C2(Cl)Cl)cc1Cl (relative stereo) [F86, trans-2-Chloro-5-(2,2-dichloro-3-(3,5-dichloro-4-methoxyphenyl)cyclopropane-1-carboxamido)-N-(2-fluoroethyl)benzamide] | 50 to 100% | B (More than 0-Less than 80) | 50 to 100% |  |  |
| O=C(NCC(F)(F)F)c1cc(NC(=O)[C@H]2[C@H](c3cc(F)cc(C(F)(F)F)c3)C2(Cl)Cl)ccc1Cl (relative stereo) [F122, 2-Chloro-5-(trans-2,2-dichloro-3-(3-fluoro-5-(trifluoromethyl)phenyl)cyclopropane-1-carboxamido)-N-(2,2,2-trifluoroethyl)benzamide] | 50 to 100% | A (80-100) | 50 to 100% |  |  |
| O=C(NCCCCl)c1cc(NC(=O)[C@H]2[C@H](c3cc(Cl)cc(Cl)c3)C2(Cl)Cl)ccc1Cl (relative stereo) [F57, trans-2-Chloro-N-(3-chloropropyl)-5-(2,2-dichloro-3-(3,5-dichlorophenyl)cyclopropane-1-carboxamido)benzamide] | 50 to 100% | D (No activity noticed in this bioassay) | 50 to 100% |  |  |
| COCCOCCCNC(=O)c1cc(NC(=O)[C@H]2[C@H](c3cc(Cl)cc(Cl)c3)C2(Cl)Cl)ccc1Cl (relative stereo) [F58, trans-2-Chloro-5-(2,2-dichloro-3-(3,5-dichlorophenyl)cyclopropane-1-carboxamido)-N-(3-(2-methoxyethoxy)propyl)benzamide] | 50 to 100% | A (80-100) | 50 to 100% |  |  |
| O=C(Nc1ccc(Cl)c(C(=O)N2CCC(F)(F)C2)c1)[C@H]1[C@H](c2cc(Cl)cc(Cl)c2)C1(Cl)Cl (relative stereo) [F71, trans-2,2-Dichloro-N-(4-chloro-3-(3,3-difluoropyrrolidine-1-carbonyl)phenyl)-3-(3,5-dichlorophenyl)cyclopropane-1-carboxamide] | 50 to 100% | D (No activity noticed in this bioassay) | 50 to 100% |  |  |
| CC(NC(=O)c1cc(NC(=O)[C@H]2[C@H](c3cc(Cl)cc(Cl)c3)C2(Cl)Cl)ccc1Cl)c1ccc(F)cc1 (relative stereo) [F96, 2-chloro-5-(trans-2,2-dichloro-3-(3,5-dichlorophenyl)cyclopropane-1-carboxamido)-N-(1-(4-fluorophenyl)ethyl)benzamide] | 50 to 100% | A (80-100) | 50 to 100% |  |  |
| O=C(NCCC(F)(F)F)c1cc(NC(=O)[C@H]2[C@H](c3ccc(F)c(Cl)c3)C2(Cl)Cl)ccc1Cl (relative stereo) [F107, trans-2-Chloro-5-(2,2-dichloro-3-(3-chloro-4-fluorophenyl)cyclopropane-1-carboxamido)-N-(3,3,3-trifluoropropyl)benzamide] | 50 to 100% | B (More than 0-Less than 80) | 50 to 100% |  |  |

Source: patent US9795140B2, “Molecules having pesticidal utility, and intermediates, compositions, and processes, related thereto” (priority 2015, dated 2017)
